According to patent publication US10314816B2, “Antimicrobial compounds, compositions and methods of use thereof” (Wisconsin Alumni Research Foundation, priority 2012, dated 2019):

Tests used:
C. crescentus CB15N = assay: Minimum biofilm inhibitory concentration (bMIC); format: cell-based, Caulobacter crescentus
Protocol: Determination of the minimum biofilm inhibitory concentration of growth (bMIC) and biofilm eradication concentration (MBEC). Overnight cultures of C. crescentus and S. aureus were grown and diluted 100-fold into appropriate nutrient media. Aliquots of the diluted suspension were transferred into wells of 96-well plates (150 μL/well). 2-fold serial dilutions were performed for compound-containing wells. For every experiment, three replicates for each compound concentration tested were included. After transferring aliquots of the suspension, the plates were closed with specialized lids that have protruding pins (Nunc STP System), and the plates were sealed using Parafilm®. The plates were incubated in a static incubator at 30° C. (C. crescentus) or 37° C. (S. aureus) for 24 hours. After the cells had formed biofilms on the surface of the pins, the pins were rinsed by dipping them in M2 (C. crescentus) or PBS (S. aureus) solutions. To rinse the pins, clean, sterile 96-well plates were used (aliquots of 200 μL/well); each rinse lasted 10 sec. After washing away planktonic cells loosely bound to biofilms, the pins were inserted into a 96-well plate that was pre-aliquoted with nutrient media containing antibiotics (2-fold dilutions, a final volume of 150 μL/well). The plates were sealed with Parafilm®, and incubated for 17 hours, and the bMIC was measured at the end of the incubation by visual inspection. […] The plates were sealed with Parafilm®, incubated for 24 hours, and the MBEC was measured at the end of the incubation by visual inspection.
Membrane-active compounds are also efficient at eradicating biofilm-associated cells (Table 2). […] To determine the efficacy of antibiotics against biofilms, the minimum biofilm inhibitory concentration (bMIC) and the minimum biofilm eradication concentration (MBEC) were measured. […] After 24 hours of exposure to compounds, the lowest concentration of antibiotic that inhibited planktonic cell growth in the wells (bMIC) was determined.

B. subtilis cells = assay: Measurement of ΔΨ using DiOC2, flow cytometry; format: cell-based, Bacillus subtilis; details: 20 minutes of treatment, p<0.001
Protocol: Fluorescence microscopy and flow cytometry to measure ΔΨ. The fluorescent probe, 3,3′-diethyloxacarbocyanine iodide (DiOC2) was used to measure ΔΨ in DMSO and in compound-treated cells. To eliminate the possibility of an interaction between the probe and compounds, the fluorescence intensity of solutions of DiOC2 was measured in the presence and absence of the compounds as described in the art. To measure ΔΨ in B. subtilis cells, flow cytometry was used. Cell suspensions were labeled with 30 μM DiOC2 and filtered through a Nylon filter containing 60-μm diameter pores. The fluorescence of these cells was measured using a BD LSR II flow cytometer. The following instrument settings were used for detection: low flow rate, 488 nm excitation laser, 530/30 nm emission filter for green fluorescence, and 575/26 nm emission filter for red fluorescence. […] First, a gate was drawn around the region where cells were detected in the forward versus side scatter area plot. Gating enabled the exclusion of any non-cellular materials in the sample that the instrument detected. The ratio of red-to-green fluorescence was calculated for each particle within the gate using the software, and the resulting data was exported to GraphPad Prism to create box plots shown in FIG. 5. Statistical parameters were calculated using the Kruskal-Wallis non-parametric one-way analysis of variation (GraphPad InStat). […]

C. crescentus cells = assay: Measurement of ΔΨ using DiOC2, fluorescence microscopy; format: cell-based, Caulobacter crescentus; details: 20 minutes of treatment, p<0.001
Protocol: For experiments with C. crescentus cells, the cells were prepared by diluting the overnight culture 10-fold into fresh PYE medium. The diluted culture was grown for 1 hour at 200 rpm and 30° C. The cells were treated with compounds for 10 minutes at room temperature, DiOC2 dye was added to a final concentration of 30 μM, and incubated for 10 minutes. After labeling, small aliquots (1-2 μl) of the suspensions of cells were transferred onto 1% agarose pads for fluorescence microscopy. A Nikon Eclipse TE2000E inverted microscope with an Andor DU-895 EMCCD camera, a Perfect Focus system, and an encoded z-stage were used for phase contrast and epifluorescence microscopy. For detecting green and red fluorescence of the dye, the following wavelengths (λex/λem): 484/520 nm and 555/620 nm, respectively, were used. Acquired images were analyzed using the MATLAB-based script MicrobeTracker. […] The segmentation was applied to the fluorescence images to calculate the fluorescence intensity for individual cells. A separate MATLAB script was written to process the results from MicrobeTracker, in which the cell-area normalized ratio of red to green fluorescence for each cell was calculated.
ΔΨ was measured for two model bacteria, C. crescentus (Gram-negative) and Bacillus subtilis (Gram-positive), in the absence and presence of DCAP. […] DiOC2 emits green fluorescence (λ=530 nm) in its monomeric form. […]

B. subtilis 168 = assay: MIC of bacterial growth, macrodilution (Table 2); format: cell-based; details: Bacillus subtilis
Protocol: Bacterial strains and growth conditions. Luria-Bertani (LB) media (10 g/L tryptone, 10 g/L NaCl, 5 g/L yeast extract, pH 7.2) was used to grow B. subtilis 168, S. aureus FRI100, and P. aeruginosa K1115 strains. For P. aeruginosa PAO1 and K1119 strains and two E. coli BW25113 strains, M8 minimal media (241 mg/L MgSO4, 4 mg/L glucose, 5 mg/L casamino acids, 12.8 g/L Na2HPO4.7H2O, 3 g/L KH2PO4, and 0.5 g/L NaCl) was used. PYE media (2 g/L peptone, 1 g/L yeast extract, 0.8 mM MgSO4, and 0.5 mM CaCl2) was used for culturing C. crescentus cells at 30° C. All cultures were grown at 37° C., except for C. crescentus (30° C.). All cultures were grown while shaking at 200 rpm.
Determination of the minimum inhibitory concentration (MIC) of bacterial growth. The MIC of various organisms in liquid media was determined using the macrodilution method according to the NCCLS guidelines. For the starting inoculum, cultures were diluted to contain approximately 5×10^5 cells/mL in growth media. To create a two-fold dilution series for the macrodilution technique, each compound was added to the first culture tube (4 mL total volume) at the highest concentration. 2 mL of this culture was diluted into an equal volume of inoculated media (a two-fold dilution). The final volume for each culture was 2 mL.

| Compound | bMIC (C. crescentus CB15N) [µM] | ΔΨ (λ576/λ530 of DiOC2) (B. subtilis cells) | ΔΨ (λ576/λ530 of DiOC2) (C. crescentus cells) | MIC (B. subtilis 168) [µM] |
| --- | --- | --- | --- | --- |
| N#CC(C#N)=NNc1cccc(Cl)c1 [CCCP, carbonyl cyanide m-chlorophenyl hydrazone] | 5 | significant decrease in λ576/λ530 | significant decrease in λ576/λ530 | 10 |
| OCC(CO)(CO)NCC(O)Cn1c2ccc(Cl)cc2c2cc(Cl)ccc21 (centres unmarked) [DCAP, 2-((3-(3,6-dichloro-9H-carbazol-9-yl)-2-hydroxypropyl)amino)-2-(hydroxymethyl)propane-1,3-diol] | 20 | significant decrease in λ576/λ530 | significant decrease in λ576/λ530 | 32 |
